“Also recorded” adds a separate entry of the source.
Key:
Format in all cases: cell-based, rat
[1] = tested on: neural progenitor cells; assay: Dunn chamber chemotaxis / chemokinesis of neural progenitor cells
Description: The SVZ was dissected from coronal slices of newborn rat brains, dissociated mechanically and trypsinized according to methods known in the art (See Lim et al. “Noggin antagonizes BMP signaling to create a niche for adult neurogenesis, Neuron, 28: 713-726 (2000), which is incorporated by reference herein). SVZ progenitors were purified using percoll gradient centrifugation according to methods known in the art (See Lim et al., 2000) and seeded onto matrigel (0.24 mg/cm^2)- or laminin-coated coverslips. Isolated cells were allowed to grow in Neurobasal medium supplemented with 20 ng/ml FGF-2, 1×B27, 2 mM […], 1 mM sodium pyruvate, 2 mM N-acetyl-cysteine, and 1% penicillin-streptomycin. Cultures were fed every three days with fresh medium containing 20 ng/ml FGF-2.
[…] Cell Sci., 99:769-775 (1991); Allen et al., “A role for Cdc42 in macrophage chemotaxis,” J. Cell. Biol, 141:1147-1157 (1998), both of which are incorporated by reference herein). Recombinant human VEGF-CΔNΔC (Dr. M. Skobe, Cancer Center, Mount Sinai Medical Center, New York) was used in some experiments. The Dunn chamber is made from a Helber bacteria counting chamber by grinding a circular well in the central platform to leave a 1 mm wide annular bridge between the inner and the outer well. Chemoattractants added to the outer well of the device will diffuse across the bridge to the inner blind well of the chamber and form a gradient. This apparatus allows one to determine the direction of migration in relation to the direction of the gradient.
Coverslips with cells were inverted onto the chamber and cell migration was recorded through the annular bridge between the concentric inner and outer wells, and a period of 2 hours was chosen to assess cell migration. In these studies, a systematic sampling was applied and all cells within the migration region of the chamber were recorded and analyzed. Data were recorded every 10 minutes using a ZEISS 10× objective via a HAMAMATSU CCD video camera using Openlab software.
[…] For chemokinesis experiments, VEGF (20 ng/ml) or FGF-2 (20 ng/ml) was added to both outer and inner wells of the Dunn chamber.
Directionality of cell movement was analyzed using scatter diagrams of cell displacement. The diagrams were oriented so that the position of the outer well of the chamber was vertically upwards (y direction). Each point represents the final positions of the cells at the end of the recording period where the starting point of migration is fixed at the intersection of the two axes.
To determine the efficiency of forward migration during the 2-hour recording period, each cell's forward migration index (FMI) was calculated as the ratio of forward progress (net distance the cell progressed in the direction of VEGF source) to the total path length (total distance the cell traveled through the field) (Foxman et al., 1999). FMI values were negative when cells moved away from the source of VEGF. The cell speed was calculated for each lapse interval recorded during the 2-hour period.

[2] = tested on: subventricular zone (SVZ) explants; assay: Migration of neural progenitor cells from SVZ explants in collagen matrix
Description: The frontal lobes of the brains of one-day-old Sprague-Dawley rat pups (Size, Zurich, Switzerland) were isolated and cut into 300 μm thick coronal sections with a McIllwain tissue chopper. From these slices the anterior part of the subventricular zone (SVZ) was microdissected. The SVZ explants were embedded in a collagen matrix and cultured for 7 days in chemically-defined serum-free medium (50% Dulbecco's modified Eagle's medium [Gibco, Berlin, […]], 50% F12, HEPES, Tris-HCl, and complemented with transferrin human 20 μg/ml, putrescine 100 μM, sodium selenite 30 nM, triiodothyronin 1 nM, docosahexaenoic acid 0.5 μg/ml, arachidonic acid 1 μg/ml, insulin 60 U/l) under 5% CO2. The medium was changed every 3rd day. For co-culture experiments, SVZ explants were cultured in the presence of murine C2C12 myoblasts that had been engineered to secret […] et al., 2001). C2C12 cells were suspended in a drop of collagen matrix which was placed at a distance of approximately 1,000 μm from the SVZ explant. As a control, mock-transfected cells of the same origin were placed into the collagen matrix in a similar manner and at the same distance, but on the opposite side of the explant. Cell migration was assessed at the end of the 7th day in culture. Three categories were established: 1, no migration: no or only a few cells emigrated from the explants; 2, symmetrical migration: numerous cells had left the explants, the distance of the migrating front of the cells exceeded 50 μm, no directionality of migration; 3, asymmetrical or directional migration: when the distance of the migrating front were at least twice that on the other side and exceeded 50 μm.

[3] = tested on: VEGFR-1; assay: RNase protection assay of VEGF receptor mRNA expression; settings: 12 hours starvation of FGF-2 versus cells in FGF-2
Description: (§1) Neural progenitor cells at 6 days of culture in FGF-2 or after starvation of FGF-2 for 12 hours were used for RNA preparation. Total cellular RNA was purified using Trizol reagent (Invitrogen). RNase protection assays were performed using cRNA probes for rat VEGFR1 and VEGFR2 as described in Pepper et al. (2000).

[4] = tested on: VEGFR-2; assay: as above; settings: 12 hours starvation of FGF-2 versus cells in FGF-2
Description: as §1

[5] = tested on: VEGFR-2; assay: Immunoprecipitation and Western blot of VEGFR-2 protein
Description: Neural progenitor cells from the normal cultures in FGF-2 or from cultures starved of FGF-2 for 12 hours were lysed and VEGFR-2 protein was immunoprecipitated from cell lysates with a polyclonal antibody (sc-504; Santa Cruz Biochemicals, Santa Cruz, Calif.) recognizing amino aids 1158 to 1345 in the mouse VEGFR2 carboxy terminus. Western blot was performed with a polyclonal anti-VEGFR-2 antibody (sc-315; Santa Cruz Biochemicals) recognizing the mouse carboxy terminal amino acids 1348 to 1367.

level of VEGFR-1 transcripts after FGF-2 starvation [3]	level of VEGFR-2 transcripts after FGF-2 starvation [4]	Substance	directionality of migration under chemokinesis conditions ([1]; VEGF (20 ng/ml) in both inner and outer wells, FGF-2 present)	forward migration index (FMI) versus FGF-2 gradient or chemokinesis ([1]; VEGF gradient in the presence of FGF-2, 2-hour recording)	migration speed versus FGF-2 gradient or chemokinesis ([1]; VEGF gradient in the presence of FGF-2, mean over 2 hours)	chemotaxis in a VEGF gradient after FGF-2 starvation ([1]; cells at 5 days starved of FGF-2 for 12 hours, then VEGF gradient)	chemotaxis of neural progenitor cells in a VEGF gradient ([1]; gradient established with 200 ng/ml VEGF in outer well, 20 ng/ml FGF-2 in both wells, day 6 cells, 2-hour recording)	attractive effect on different coating matrices ([1]; laminin-, poly-L-lysine- or matrigel-coated coverslips)	explants with no significant cell migration ([2]; application of VEGF in the absence of FGF-2)	chemotactic response to VEGF after re-addition of FGF-2 ([1]; 12-hour FGF-2 starvation, then 8-hour re-incubation with FGF-2, VEGF gradient)	chemotactic effect of FGF-2 ([1]; FGF-2 gradient, whether or not VEGF was present)	VEGFR-2 protein expression in the presence of FGF-2 ([5]; cultured in FGF-2)	VEGFR-2 protein expression in the absence of FGF-2 ([5]; starved of FGF-2 for 12 hours)	explants with migrating cells symmetrically distributed ([2]; FGF-2 (20 ng/ml), co-cultured with mock-transfected cells)	explants with symmetric migration ([2]; application of VEGF and FGF-2 together or FGF-2 alone)
		VEGF	no clear preference for displacement	significantly greater	significantly greater	lose their chemotactic response; also recorded: failed to undergo chemotaxis	clear directionality of migration; also recorded: strong positive chemotaxis; also recorded: migrated efficiently toward the source of VEGF	similar	4/4						
fivefold decrease	fivefold decrease	FGF-2: fibroblast growth factor-2 (FGF-2), used at 20 ng/ml in culture medium								resume their chemotactic response; also recorded: rescued	no chemotactic effect	substantial expression	little to no expression	10/10	12/12

From patent US20080118480A1, “Methods and Compositions for Directing Migration of Neural Progenitor Cells” (IMCLONE SYSTEMS INCORPORATED, priority 2003, published 2008)
